These are literature values, as cited in US11607386B2, “Liposomes encapsulating adenosine” (New York University, priority 2019, dated 2023).

Assay in series [1]: not given
This is another data set of the same source.

The structures appear in SMILES notation.

Consider `Nc1ncnc2c1ncn2[C@@H]1O[C@H](CO)[C@@H](O)[C@H]1O` [adenosine], for which the half-life result is reported as “mere seconds”. Besides, the “solubility of adenosine in water” value in series [1] was 7000 µg/mL.
